Results: patent publication US12667570B2, “Small molecule modulators of KSR-bound MEK” (Icahn School of Medicine at Mount Sinai, priority 2020, dated 2026)
Values belong to the compound of their own block, whether it stands above or below them.

How the values were obtained:
[1] = target: T1, mouse KSR1-luc (KSR-bound MEK) (UniProt Q02750+Q61097); test: NanoBRET in-cell steady-state IC50 (competition with tram-bo tracer), KSR1-luc; type: binding
T1 construct: expressed in transfected cells; host or cells: HEK293T

HCT 116 = test: Cell proliferation / viability assay under low-adherence conditions; type: cell-based, human
Protocol: A375, A549, HCT116, and SKMEL-239 cells were plated in Corning Costar Ultra-Low Attachment 96-well plates (Reference number 3434). After 24 hours of incubation at 37° C., cells were treated with inhibitors (0.1% DMSO in final volume). Cells were grown for five days, and resazurin sodium salt was added at a final concentration of 0.01 μg/μL. Fluorescence was measured using a Molecular Devices SpectraMax M5 spectrophotometer after a 4-24-hour incubation with resazurin solution. Technical triplicate values were averaged for each experiment, and biological replicate values are represented as average+/−standard deviation. For each cell line, log EC50 values of inhibitors were statistically compared using the extra sum-of-squares F test in GraphPad Prism 8 (FIG. 57, 58, 67, 68, 69).

BRAF-MEK1 complex [2] = target: T2, BRAF-MEK1 complex (Homo sapiens, UniProt P15056+Q02750); test: Co-immunoprecipitation via endogenous MEK1 from HCT116 cells, BRAF; type: cell-based; details: 200 nM, 1 hour, relative to DMSO
T2 construct: IP/WB of endogenous MEK1 from HCT116 cells; endogenous in cells; host or cells: HCT116

MEK1 and MEK2 [3] = test: In vitro kinase profiling, direct binding assays, MEK1/MEK2; details: 1 μM
From the text: (§1) FIG. 65 Trametiglue targets both KSR-MEK and RAF-MEK with unprecedented potency and selectivity via unique interfacial binding interactions.

isolated BRAF or CRAF = test: In vitro kinase profiling, direct binding assays, BRAF/CRAF; details: 1 μM
From the text: as §1

MEK1 and MEK2 [4] = test: In vitro substrate phosphorylation assays, MEK1/MEK2; type: biochemical; details: panel of active kinases
From the text: as §1

[5] = system: BRAF and CRAF phosphorylation of MEK1; test: In vitro phosphorylation of MEK1 by upstream kinases; type: biochemical; details: MEK1 as substrate
From the text: as §1

KRAS-G12S A549 cells = test: Long-term clonogenic assay; type: cell-based, human; details: 10 nM final concentration, in comparison to amide-linker compounds (1, 3)
Protocol: Cells were plated at a density of 6,000 cells per well in 6-well plates in 3 mL of culture medium. Twenty-four hours after seeding, compounds dissolved in DMSO or DMSO-only vehicles were added directly to the culture media at a 1:1000 dilution. Following 10 days of culture, cells were washed 2× in PBS, fixed in ice-cold methanol for 10 minutes, stained with crystal-violet at room temperature for 10 minutes, and subsequently washed three times in water. Plates were allowed to dry overnight before imagining with an Epson V600 scanner.

[6] = system: phosphorylated ERK1/2 at residues T202 and Y204 (pERK); test: Immunoblot of RAS/ERK pathway inhibition; type: cell-based, human; details: 1 hour, increasing concentrations
Protocol: Cells were plated at a density of 300,000 cells per well in 6-well plates in 2 mL of culture medium. 24 hours after seeding, cells were treated with compounds or DMSO at a 1:1000 dilution (0.1% DMSO in final volume). […] Samples were normalized to a protein content of 5 μg/μL in 100 μL total volume, and 20 μL of 6×SDS was added. […] Transfers were confirmed using ponceau red, washed, and then blocked for 1 hour with 5% BSA TBS-T, prior to overnight incubation with primary antibodies including phospho-ERK1/2 T202/Y204 and total ERK1/2 (Cell Signaling Technologies (CST) 9101S and 4695S, respectively) in 5% BSA TBS-T. The next day, blots were washed extensively, and incubated in secondary antibody (Anti-Rabbit IgG HRP-Linked CST 7074S).

human KSR1-luc = target: T3, human KSR1-luc (Homo sapiens, UniProt Q02750+Q8IVT5); test: Tram-bo BRET buildup curves, KSR1-luc; type: binding
T3 construct: expressed in transfected cells; host or cells: HEK293T
Protocol: (§2) Human c-terminal NanoLuc fusions versions of ARAF (Uniprot P10398), BRAF (UniProt P15056), CRAF (Uniprot P04049), KSR1 (Uniprot Q8IVT5), and KSR2 (Uniprot Q6VAB6) were transfected as mentioned above at a concentration of 0.1 μg/mL in combination with 9.9 μg/mL of carrier DNA. All RAF constructs from Promega. […] A 20× tram-bo solution was added to each well to give final concentrations of 4, 1, 0.5, 0.1, 0.05, 0.01, 0.001, 0.0001 μM. […] All data were analyzed using Prism 8 (GraphPad).

human KSR2-luc = target: T4, human KSR2-luc (Homo sapiens, UniProt Q02750+Q6VAB6); test: Tram-bo BRET buildup curves, KSR2-luc; type: binding
T4 construct: expressed in transfected cells; host or cells: HEK293T
Protocol: as §2

[7] = system: ARAF-luc, BRAF-luc, and CRAF-luc; test: Tram-bo BRET buildup curves, RAF family; type: binding, human; details: in cells
Protocol: as §2

KSR1-luc (KSR-bound MEK) = KSR1-luc (KSR-bound MEK) (UniProt Q02750+Q61097); test: NanoBRET washout experiment, intracellular residence time, KSR1-luc; type: binding, mouse; details: BRET build-up with 1 μM tram-bo, […] time course
Protocol: (§3) Specifically, transfections of MEK1-luc and KSR1-luc, and construction of the drug transfer plates were carried out as mentioned above. For washout experiments, cells were first removed from adherent plates by trypsin treatment. Following, cells were harvested, spun, and resuspended in Opti-MEM (270 μL total) in centrifuge tubes at 450,000 cells/tube.

MEK1-luc [8] = target: T5, MEK1-luc (Homo sapiens, UniProt Q02750); test: NanoBRET washout experiment, intracellular residence time, MEK1-luc; type: binding; details: BRET build-up with 1 μM tram-bo, […] time course
Protocol: as §3

BRAF-MEK1 complex [9] = target: BRAF-MEK1 complex (Homo sapiens, UniProt P15056+Q02750, R662A); test: Co-immunoprecipitation via endogenous MEK1 from HCT116 cells, BRAF; type: cell-based; details: 200 nM, 1 hour
KSR1-MEK1 complex = KSR1-MEK1 complex (UniProt Q02750+Q61097, P775N); test: Co-immunoprecipitation via endogenous MEK1 from HCT116 cells, FLAG-KSR1; type: cell-based, mouse KSR1; details: 200 nM, 1 hour
MEK1-luc [10] = target: T5, MEK1-luc; test: NanoBRET in-cell steady-state IC50 (competition with tram-bo tracer), MEK1-luc; details: IC50 MEK1-luc versus KSR1-luc
isolated MEK1 = target: T6, isolated MEK1 (Oryctolagus cuniculus, UniProt P29678, S298N/S299K/Y300F); test: Bio-layer interferometry (BLI), isolated MEK1; type: binding, rabbit; details: read-out: dissociation constant (KD), isolated MEK1
T6 construct: rabbit MEK1 (residues 35-393; Uniprot ID: P29678); hexahistidine tag with TEV-cleavage site (N); made in house; host or cells: SF21 insect cells (baculovirus)
T6 sequence (P29678 35-393 S298N/S299K/Y300F): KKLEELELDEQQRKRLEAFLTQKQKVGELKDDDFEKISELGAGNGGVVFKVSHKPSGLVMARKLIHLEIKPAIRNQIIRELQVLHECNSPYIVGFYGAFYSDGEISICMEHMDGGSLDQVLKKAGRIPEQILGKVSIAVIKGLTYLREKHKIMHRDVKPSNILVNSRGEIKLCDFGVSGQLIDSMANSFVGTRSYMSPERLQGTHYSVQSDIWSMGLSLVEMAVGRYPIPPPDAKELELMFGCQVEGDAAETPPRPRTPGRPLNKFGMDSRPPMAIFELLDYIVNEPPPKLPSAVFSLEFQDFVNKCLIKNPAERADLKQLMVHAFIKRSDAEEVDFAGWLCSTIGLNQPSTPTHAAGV
Protocol: (§4) BLI measurements were performed using an Octet Red96 (Forte Bio, Inc.) system. All experiments were conducted at 25° C. with shaking at 1000 rpm, and in a buffer containing 20 mM Hepes pH 7.5, 200 mM NaCl, 1 mM ATP, 5 mM MgCl2, 0.02% Tween-20, 1% DMSO. […] This amount of immobilization typically achieved 1.5-2.0 nm binding signal. Biosensors were then washed in buffer, treated in a solution of biocytin for 3 min, and then again washed extensively to achieve a normalized baseline signal of ˜0 nm. Following, for kinetic analysis, biosensors were dipped in solutions of free MEK1, BRAF:MEK1, KSR1:MEK1, or KSR2:MEK1. Association was measured for 10 or 15 minutes, following a dissociation phase in buffer of 15 minutes. […] All experiments were performed at least three independent times, with raw data processed and analyzed using global fit binding models in Fortebio software to derive KD (M), Kon(1/M·s), and Kdis (1/s) values. […] One-to-one binding models provided a high agreement with the measured binding signals based on chi-squared and R-squared values. Raw data and fitting, mean and standard deviation determinations, as well as statistical analysis, for KD, kon(1/M·s), kdis(1/s), and τ(min) are included in FIG. 71.

BRAF-MEK1 = target: T7, BRAF-MEK1 (Oryctolagus cuniculus, UniProt P29678, S298N/S299K/Y300F); test: Bio-layer interferometry (BLI), BRAF-MEK1; type: binding, human BRAF; rabbit MEK1; details: read-out: dissociation constant (KD), MEK1-BRAF
T7 construct: human BRAF (residues 432-726; Uniprot ID: P15056); rabbit MEK1 (residues 35-393; Uniprot ID: P29678); hexahistidine tag with TEV-cleavage site (N); made in house; host or cells: SF21 insect cells (baculovirus)
T7 sequence (P29678 35-393 S298N/S299K/Y300F): as above
Protocol: as §4

KSR1-MEK1 = target: T8, KSR1-MEK1 (UniProt P29678+Q8IVT5, S298N/S299K/Y300F); test: Bio-layer interferometry (BLI), KSR1-MEK1; type: binding, human KSR1; rabbit MEK1; details: read-out: dissociation constant (KD), KSR1-MEK1
T8 construct: human KSR1 (residues 591-899; Uniprot ID:Q8IVT5); rabbit MEK1 (residues 35-393; Uniprot ID: P29678); hexahistidine tag with TEV-cleavage site (N); made in house; host or cells: SF21 insect cells (baculovirus)
T8 sequence (Q8IVT5 591-899): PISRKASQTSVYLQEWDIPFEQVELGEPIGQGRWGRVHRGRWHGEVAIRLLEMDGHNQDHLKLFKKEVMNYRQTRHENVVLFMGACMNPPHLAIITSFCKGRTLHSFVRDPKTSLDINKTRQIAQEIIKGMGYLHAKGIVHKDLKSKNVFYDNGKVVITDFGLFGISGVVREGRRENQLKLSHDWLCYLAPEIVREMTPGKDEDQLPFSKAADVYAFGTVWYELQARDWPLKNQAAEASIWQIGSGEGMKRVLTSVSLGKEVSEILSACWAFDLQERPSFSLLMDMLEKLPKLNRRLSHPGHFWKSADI
T8 sequence (P29678 35-393 S298N/S299K/Y300F): as the sequence (P29678 35-393 S298N/S299K/Y300F) above
Protocol: as §4

KSR2-MEK1 = target: T9, KSR2-MEK1 (UniProt P29678+Q6VAB6, S298N/S299K/Y300F); test: Bio-layer interferometry (BLI), KSR2-MEK1; type: binding, human KSR2; rabbit MEK1; details: read-out: dissociation constant (KD), KSR2-MEK1
T9 construct: human KSR2 (residues 634-950; Uniprot ID: Q6VAB6); rabbit MEK1 (residues 35-393; Uniprot ID: P29678); hexahistidine tag with TEV-cleavage site (N); made in house; host or cells: SF21 insect cells (baculovirus)
T9 sequence (Q6VAB6 634-950): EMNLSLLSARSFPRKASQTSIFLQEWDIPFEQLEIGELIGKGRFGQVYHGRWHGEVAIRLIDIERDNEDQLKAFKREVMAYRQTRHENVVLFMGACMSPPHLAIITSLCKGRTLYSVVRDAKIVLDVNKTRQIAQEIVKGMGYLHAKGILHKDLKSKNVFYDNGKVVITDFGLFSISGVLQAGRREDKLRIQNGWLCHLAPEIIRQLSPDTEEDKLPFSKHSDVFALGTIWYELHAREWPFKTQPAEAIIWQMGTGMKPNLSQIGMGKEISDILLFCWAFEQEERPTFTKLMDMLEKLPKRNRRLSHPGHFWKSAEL
T9 sequence (P29678 35-393 S298N/S299K/Y300F): as the sequence (P29678 35-393 S298N/S299K/Y300F) above
Protocol: as §4

[11] = HCT 116, low-adherence conditions
[12] = BRET buildup, increasing tram-bo

IC50 (HCT 116; Homo sapiens, HCT-116, 120 h, low-adherence conditions, five days): 0.07 ± 0.04 nM
pulldown of wild-type BRAF via endogenous MEK1 (BRAF-MEK1 complex [2]): markedly enhanced capture of BRAF
selectivity in kinase binding experiments (MEK1 and MEK2 [3]): strong selectivity towards MEK1 and MEK2
direct interaction with isolated BRAF or CRAF (isolated BRAF or CRAF): no direct interactions
Structure (SMILES): CNS(=O)(=O)Nc1cccc(-n2c(=O)n(C3CC3)c(=O)c3c(Nc4ccc(I)cc4F)n(C)c(=O)c(C)c32)c1 [trametiglue, N-(3-(3-Cyclopropyl-5-((2-fluoro-4-iodophenyl)amino)-6,8-dimethyl-2,4,7-trioxo-3,4,6,7-tetrahydropyrido[4,3-d]pyrimidin-1(2H)-yl)phenyl)methylaminosulfonamide]
potency and off-rate kinetics compared with trametinib ([1]; KSR-luc or MEK-luc reporters, steady-state and washout): retained similar potency and off-rate kinetics as trametinib
improvement in potency relative to CH5126766 (HCT 116; [11]): ~200 fold
improvement in potency relative to trametinib (HCT 116; [11]): approximately 7 fold
inhibition of MEK1 and MEK2 substrate phosphorylation (MEK1 and MEK2 [4]): inhibited MEK1 and MEK2
inhibition of MEK1 phosphorylation by upstream kinases [5]: inhibition of both BRAF and CRAF phosphorylation of MEK1
growth inhibition in clonogenic assay (KRAS-G12S A549 cells): enhanced and durable growth inhibition
inhibition of RAS-MAPK signaling measured by pERK, relative to trametinib [6]: higher potency inhibitor of RAS-MAPK signaling

Structure (SMILES): CCN(C)S(=O)(=O)Nc1cccc(-n2c(=O)n(C3CC3)c(=O)c3c(Nc4ccc(I)cc4F)n(C)c(=O)c(C)c32)c1 [compound 6, N-(3-(3-cyclopropyl-5-((2-fluoro-4-iodophenyl)amino)-6,8-dimethyl-2,4,7-trioxo-3,4,6,7-tetrahydropyrido[4,3-d]pyrimidin-1(2H)-yl)phenyl)-N′-ethyl(methyl)sulfonamide 2,2,2-trifluoroacetate]
growth inhibition in clonogenic assay (KRAS-G12S A549 cells): enhanced and durable growth inhibition

binding to KSR1-luc relative to ARAF-luc, BRAF-luc and CRAF-luc (human KSR1-luc; [12]): ~10 fold
BRET binding signal, KSR1-luc (human KSR1-luc; in cells): strong BRET binding signals
binding to KSR2-luc relative to ARAF-luc, BRAF-luc and CRAF-luc (human KSR2-luc; [12]): ~10 fold
BRET binding signal, KSR2-luc (human KSR2-luc; in cells): strong BRET binding signals
Structure (SMILES): Cc1c(=O)n(C)c(Nc2ccc(I)cc2F)c2c(=O)n(C3CC3)c(=O)n(-c3cccc(NC(=O)CCOCCOCCNC(=O)CCC4=[N+]5C(=Cc6ccc(-c7ccc[nH]7)n6[B-]5(F)F)C=C4)c3)c12 [tram-bo]
BRET signal, ARAF-luc, BRAF-luc, CRAF-luc [7]: much weaker BRET signals

Structure (SMILES): Cc1c(=O)n(C)c(Nc2ccc(I)cc2F)c2c(=O)n(C3CC3)c(=O)n(-c3cccc(NS(=O)(=O)NC4CC4)c3)c12 [compound 5, N-(3-(3-cyclopropyl-5-((2-fluoro-4-iodophenyl)amino)-6,8-dimethyl-2,4,7-trioxo-3,4,6,7-tetrahydropyrido[4,3-d]pyrimidin-1(2H)-yl)phenyl)cyclopropylaminosulfonamide]
growth inhibition in clonogenic assay (KRAS-G12S A549 cells): enhanced and durable growth inhibition

dissociation kinetics after washout on KSR1-luc (KSR1-luc (KSR-bound MEK)): dissociated more readily
dissociation kinetics after washout on MEK1-luc (MEK1-luc [8]): dissociated more readily
pulldown of BRAF mutant B2 (R662A) via endogenous MEK1 (BRAF-MEK1 complex [9]): did not alter complex stability
pulldown of KSR1 mutant K1 (P775N) via endogenous MEK1 (KSR1-MEK1 complex): did not alter complex stability
difference in potency between KSR1-luc and MEK1-luc (MEK1-luc [10]): ~20 fold
Structure (SMILES): O=C(c1ccc(F)c(F)c1Nc1ccc(I)cc1F)N1CC(O)([C@@H]2CCCCN2)C1 [cobimetinib]
IC50 on KSR1-luc compared with MEK1-luc ([1]; competition of tram-bo): more potent IC50 values on KSR1-luc over MEK1-luc

Structure (SMILES): CNS(=O)(=O)Nc1nccc(Cc2c(C)c3ccc(Oc4ncccn4)cc3oc2=O)c1F [CH5126766]
pulldown of wild-type BRAF via endogenous MEK1 (BRAF-MEK1 complex [2]): enhances interactions between endogenous BRAF and MEK1

Kd (isolated MEK1): 131 ± 9.4 nM
Kd (BRAF-MEK1): 217 ± 3.2 nM
Kd (KSR1-MEK1): 63.9 ± 4.7 nM
Kd (KSR2-MEK1): 70.4 ± 4.4 nM
Structure (SMILES): CC(=O)Nc1cccc(-n2c(=O)n(C3CC3)c(=O)c3c(Nc4ccc(I)cc4F)n(C)c(=O)c(C)c32)c1 [trametinib]
